This data set is described as follows: Solubility of the isolated vandaterosides. The class given is physicochemical.

As to `O=C(/C=C/c1ccccc1)O[C@H]1[C@H](OC(CC(=O)OCc2ccc(O[C@@H]3O[C@H](CO)[C@@H](O)[C@H](O)[C@H]3O)cc2)(Cc2ccc(O)cc2)C(=O)OCc2ccc(O[C@@H]3O[C@H](CO)[C@@H](O)[C@H](O)[C@H]3O)cc2)O[C@H](CO)[C@@H](O)[C@@H]1O` (stereo partly drawn) [VT3, 14-bis(4-β-D-glucopyranosyloxybenzyl)-(2R)-2-(2-β-D-glucopyranosyl-3-trans-cinnamoyl ester)-2-(p-hydroxybenzyl)malate], the “Solubility in MeOH and DMSO” value (MeOH, DMSO) is “soluble”. In addition, the Solubility in water entry (water) is recorded as “low solubility”.

These data come from patent US9012414B2, “Cosmetic composition” (Guerlain, priority 2010, dated 2015).
